The text below walks through data of patent US10021901B2, “Antimicrobial mixture of aldehydes, organic acids and fatty acid esters” (ANITOX CORPORATION, priority 2011, dated 2018).

Values after ≈ are worked out from the molar mass of the structure shown. Where two headings read alike, the source gives them in different places.

In series [1] the test system is Salmonella typhimurium (ATTC:14028). Description: Organic acid esters against Salmonella typhimurium in test tubes (Example 1). Type of series: cell-based. The note with it: for killing at 0.01 % / killing at 0.05 %: Salmonella enterica, TYPHIMURIUM, read-out: Reduction (% Reduction) of Salmonella typhimurium in vitro. As to the method:
Methyl and ethyl esters of organic acids were added to test tubes at concentrations of 0.01% and 0.05%. Tubes were vortexed for 10 seconds to uniformly mix the solution. A suspension of Salmonella typhimurium (ATTC:14028) was added to each test tube to achieve a final concentration of 10^4 cfu/ml. The solutions were vortexed, incubated at room temperature for 24 hours and plated on XLT-4 agar. Plates were incubated for 48 hours at 37° C. before enumerating colonies.

The test system of series [2] is M. gypseum. The note with it: cited from earlier work.
The subject of series [3] is yeast (10^5 CFU/bottle) in beverages. Conditions: cited from earlier work.
The subject of series [4] is Helicobacter pylori and S. cholerasuis. Conditions: Kubo 1999; Kubo and Fujita 2001; cited from earlier work.
Series [5] concerns B. cereus, S. typhimurium, V. parahaemolyticus, L. monocytogenes, S. aureus and E. coli O157:H7. The note with it: cited from earlier work.
In series [6] the test system is P. syringae pathovars. Conditions: vapour; cited from earlier work.
The subject of series [7] is E. coli. Conditions: vapour; cited from earlier work.
Series [8] deals with Phoma mycelium. Conditions: cited from earlier work.
The test system of series [9] is Penicillium expansum. Conditions: blue mold; cited from earlier work.
The subject of series [10] is A. flavus, P. notatum, A. alternate, F. oxysporum, Cladosporium spp., B. subtilis and A. tumerfaciens. The note with it: cited from earlier work.
Series [11] has as its system apricots, peaches and nectarines. Conditions: cited from earlier work.
For series [12], the system named is Staphylococcus aureus, E. coli and Salmonella typhimurium. Conditions: cited from earlier work.
Where [13] appears, read: Ethyl Ester, 0.01% Dilution, 24 hours room temperature, compared to control.
The mark [14] stands for this setting: Ethyl Ester, 0.05% Dilution, 24 hours room temperature, compared to control.
[15] abbreviates: Methyl Ester, 0.01% Dilution, 24 hours room temperature, compared to control.
The mark [16] stands for this setting: Methyl Ester, 0.05% Dilution, 24 hours room temperature, compared to control.

Take `CCCCCCCCCCCCCC(=O)OCC`: the “Reduction (% Reduction) of Salmonella typhimurium in vitro” value (“Reduction (% Reduction)” for short) in [1] (setting [13]) came to 12%; in series [1] (setting [14]), 8%.
Take `CCCCCCCCCCCCCC(=O)OC`: the “Reduction (% Reduction)” value in series [1] (setting [15]) was 43%; in [1] (setting [16]), 49%.
In the case of `CCOC(C)=O` [Acetic acid Ethyl Ester], the killing at 0.01 % in [1] (setting [13]) came to 0%. In [1] (setting [14]), the killing at 0.05 % worked out at 0%.
For the molecule `COC(C)=O` [Acetic acid Methyl Ester], the killing at 0.01 % in series [1] (setting [15]) was found to be 0%. The killing at 0.05 % in series [1] (setting [16]) was found to be 29%.
Take `CCOC(=O)c1ccccc1` [Benzoic acid Ethyl Ester, Ethyl benzoate]: in [1] (24 h), the killing at 0.01 % turned out to be 100% and the killing at 0.05 % was found to be 100%.
Consider `COC(=O)c1ccccc1` [Benzoic acid Methyl Ester, Methyl benzoate], for which, in [1] (24 h), the killing at 0.01 % is 34% and the killing at 0.05 % turned out to be 100%.
Regarding `CCCC(=O)OCC` [Butyric acid Ethyl Ester, Ethyl butyrate], in [1] (setting [13]), the killing at 0.01 % was 28%. Also, the killing at 0.05 % in [1] (setting [14]) was determined as 100%.
For `CCCC(=O)OC` [Butyric acid Methyl Ester], in [1] (24 h), the killing at 0.01 % was found to be 0% and the killing at 0.05 % was found to be 28%.
For the molecule `CCCCCCCCCC(=O)OCC` [Capric (decanoic) acid Ethyl Ester], the “Reduction (% Reduction)” value in series [1] (setting [13]) and in series [1] (setting [14]) was 0% in each case.
`CCCCCCCCCC(=O)OC` [Capric (decanoic) acid Methyl Ester]: the “Reduction (% Reduction)” value in [1] (setting [15]) is given as 8%; in series [1] (setting [16]), 0%.
Regarding `CCCCCC(=O)OCC` [Caproic (hexanoic) acid Ethyl Ester, Ethyl hexanoate], the killing at 0.01 % in series [1] (setting [13]) is 100%. Besides, the killing at 0.05 % in series [1] (setting [14]) came to 100%.
For the molecule `CCCCCC(=O)OC` [Caproic (hexanoic) acid Methyl Ester, Methyl hexanoate], the killing at 0.01 % in series [1] (setting [15]) came out at 99%. Also, in series [1] (setting [16]), the killing at 0.05 % amounted to 100%.
For the molecule `CCCCCCCC(=O)OCC` [Caprylic (octanoic) acid Ethyl Ester], the “Reduction (% Reduction)” value in series [1] (setting [13]) was determined as 66%; in series [1] (setting [14]), 65%.
For the molecule `CCCCCCCC(=O)OC` [Caprylic (octanoic) acid Methyl Ester, Methyl octanoate], the killing at 0.01 % in series [1] (setting [15]) was 94%. The killing at 0.05 % in series [1] (setting [16]) came to 94%.
As for `COC=O` [Formic acid Methyl Ester], the killing at 0.01 % in series [1] (setting [15]) turned out to be 0%. Moreover, the killing at 0.05 % in [1] (setting [16]) turned out to be 5%.
As to `CC(=O)OCCC(C)C` [Isoamyl acetate], the “Effectiveness against Salmonella in words” value in series [1] (0.01% and 0.05%) is recorded as “bactericidal activity”. Further, in series [1] (isoamyl acetate itself, 0.01% Dilution, 24 hours), the killing at 0.01 % was found to be 44%. Moreover, in series [1] (isoamyl acetate itself, 0.05% Dilution, 24 hours), the killing at 0.05 % came to 100%.
Consider `COC(=O)C(C)C` [Isobutyric acid Methyl Ester], for which, in series [1] (setting [15]), the killing at 0.01 % came out at 3%. Besides, in series [1] (setting [16]), the killing at 0.05 % was 41%.
For `CCOC(=O)CC(C)C` [Isovaleric acid Ethyl Ester], the killing at 0.01 % in series [1] (setting [13]) was 61%. Moreover, the killing at 0.05 % in series [1] (setting [14]) was 100%.
As to `CCCCCCCCCCCC(=O)OCC` [Lauric (dodecanoic) acid Ethyl Ester], the “Reduction (% Reduction)” value in series [1] (setting [13]) and in [1] (setting [14]) was 0% each time.
Consider `CCCCCCCCCCCC(=O)OC` [Lauric (dodecanoic) acid Methyl Ester, Methyl laurate], for which the killing at 0.01 % in series [1] (setting [15]) was found to be 1%. In addition, the killing at 0.05 % in series [1] (setting [16]) came out at 0%.
In the case of `CCOC(=O)CCC(C)=O` [Levulinic acid Ethyl Ester], the killing at 0.01 % in [1] (setting [13]) worked out at 0%. Moreover, the killing at 0.05 % in series [1] (setting [14]) was 8%.
On to `COC(=O)CCC(C)=O` [Levulinic acid Methyl Ester], for which the killing at 0.01 % in [1] (setting [15]) stood at 0%. Besides, the killing at 0.05 % in [1] (setting [16]) stood at 12%.
As to `CCCCC/C=C\C/C=C\CCCCCCCC(=O)OCC` [Linoleic acid Ethyl Ester], in series [1] (setting [13]), the killing at 0.01 % stood at 0%. Besides, the killing at 0.05 % in series [1] (setting [14]) was 0%.
As to `CCCCC/C=C\C/C=C\CCCCCCCC(=O)OC` [Linoleic acid Methyl Ester, methyl linoleate], in series [1] (setting [15]), the killing at 0.01 % was 14%. Besides, the killing at 0.05 % in [1] (setting [16]) worked out at 0%.
With `CCOC(=O)CC(=O)O` [Malonic acid Ethyl Ester], the killing at 0.01 % in series [1] (setting [13]) amounted to 36%. Besides, the killing at 0.05 % in [1] (setting [14]) is 57%.
`COC(=O)CC(=O)O` [Malonic acid Methyl Ester]: in series [1] (setting [15]), the killing at 0.01 % is 13%. In series [1] (setting [16]), the killing at 0.05 % amounted to 9%.
In the case of `CCOC(=O)CC` [Propionic acid Ethyl Ester], in [1] (setting [13]), the killing at 0.01 % came to 0%. Also, in series [1] (setting [14]), the killing at 0.05 % turned out to be 40%.
On to `CCC(=O)OC` [Propionic acid Methyl Ester], for which, in series [1] (24 h), the killing at 0.01 % came to 9% and the killing at 0.05 % worked out at 19%.
The like results for `CCCCC(=O)OCC` [Valeric (pentanoic) acid Ethyl Ester, Ethyl pentanoate] were, in that order, 93% and 100%.
Take `CCCCC(=O)OC` [Valeric (pentanoic) acid Methyl Ester, Methyl pentanoate]: in series [1] (24 h), the killing at 0.01 % was determined as 10% and the killing at 0.05 % is 100%.
For the molecule `CCCCCCCCCC(=O)O` [capric acid, reference compound], the “minimum inhibitory concentration (MIC)” value in [2] (liquid media) was 75 µg/mL (≈ 435 µM); in series [2] (solid media), 20 µg/mL (≈ 116 µM).
For the molecule `CC(C)=CCCC(C)=CC=O` [citral, reference compound], the “equivalent concentration for control of yeast” value in [3] (equivalent to 25 ppm trans-2-hexenal and thermal treatment) is reported as 100-120 ppm.
Turning to `CCCCCCCCC(=O)O` [nonanoic acid], the “minimum inhibitory concentration (MIC)” value in series [2] (liquid media) is 50 µg/mL (≈ 316 µM); in series [2] (solid media) it was 40 µg/mL (≈ 253 µM).
As for `CCC/C=C/C=O` [trans-2-hexenal], in series [4], the minimum biocidal activity is 800 µg/mL and the minimum inhibitory activity is 400 µg/mL. The effective concentration in series [5] is given as 247 mg/L. Besides, the “concentration that completely inhibited proliferation” value in series [6] is reported as 570 μg/L of air. Also, the “concentration that completely inhibited proliferation” value in series [7] is 930 micrograms/L of air. Moreover, the “concentration effective on inhibiting growth” value in series [8] was 250 µg/mL. The “concentration effective on controlling Penicillium expansum” value in series [9] is listed as 12.5 μl/l. Further, the “concentration that completely inhibited growth” value in [10] was 8 ng/l air. Also, the “concentration necessary to control microorganisms” value in [3] (beverages not thermally treated) was 35 ppm. In [3] (with thermal treatment (56° C. for 20 min), equivalent to citral), the “concentration for control of yeast” value was 25 ppm. For the same molecule, the phytotoxicity entry in series [11] (apricots) is listed as “not phytotoxic”. For the same molecule, the phytotoxic concentration in series [11] (peaches and nectarines) is reported as 40 μl/l.
Regarding `CC/C=C/CC=O` [trans-3-hexenal], in [12], the “level effective in controlling bacteria” value was 3 to 30 µg/mL.
